Measured values: PubChem BioAssay AID1845197 (Molecular Pharmacology Branch, DTP, NCI, 2023)
pIC50: −log10 of the molar value.

System: 349418-098-R tumor spheroid viability
Assay: Anticancer human tumor 349418-098-R patient-derived lung adenocarcinoma cell line growth inhibition
Settings: spheroids with HUVEC and MSC; for pIC50: curve of first compound; for viability, T/C: stronger effect = lower value
Summary of the method: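 Complex spheroids of malignant cells with endothelial cells and mesenchymal stem cells; agents alone or combined, from near clinical Cmax (or 10 microM if unknown) down in half-log steps, 0.25% DMSO final.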

[1] = second compound 0.003 µM, first compound 0.0316 µM
[2] = second compound 0.003 µM, first compound 0.1 µM
[3] = second compound 0.003 µM, first compound 0.316 µM
[4] = second compound 0.003 µM, first compound 1 µM
[5] = second compound 0.003 µM, first compound 3.16 µM
[6] = second compound 0.003 µM, first compound 10 µM
[7] = second compound 0.00949 µM, first compound 0.0316 µM
[8] = second compound 0.00949 µM, first compound 0.1 µM
[9] = second compound 0.00949 µM, first compound 0.316 µM
[10] = second compound 0.00949 µM, first compound 1 µM
[11] = second compound 0.00949 µM, first compound 3.16 µM
[12] = second compound 0.00949 µM, first compound 10 µM
[13] = second compound 0.03 µM, first compound 0.0316 µM
[14] = second compound 0.03 µM, first compound 0.1 µM
[15] = second compound 0.03 µM, first compound 0.316 µM
[16] = second compound 0.03 µM, first compound 1 µM
[17] = second compound 0.03 µM, first compound 3.16 µM
[18] = second compound 0.03 µM, first compound 10 µM
[19] = second compound 0.0949 µM, first compound 0.0316 µM
[20] = second compound 0.0949 µM, first compound 0.1 µM
[21] = second compound 0.0949 µM, first compound 0.316 µM
[22] = second compound 0.0949 µM, first compound 1 µM
[23] = second compound 0.0949 µM, first compound 3.16 µM
[24] = second compound 0.0949 µM, first compound 10 µM
[25] = second compound 0.3 µM, first compound 0.0316 µM
[26] = second compound 0.3 µM, first compound 0.1 µM
[27] = second compound 0.3 µM, first compound 0.316 µM
[28] = second compound 0.3 µM, first compound 1 µM
[29] = second compound 0.3 µM, first compound 3.16 µM
[30] = second compound 0.3 µM, first compound 10 µM
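Further: spheroids exposed to compound for 7 days before measurement.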
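Wherever viability, T/C is given: percent of vehicle control viability with 100% = DMSO-treated spheroids.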

## Cc1cc(C)c(CNC(=O)c2cc(-c3ccc(CN4CCOCC4)cc3)cc3c2cnn3C2CCCC2)c(=O)[nH]1 + COc1cc2c(cc1O)CCNC21CSC2c3c(OC(C)=O)c(C)c4c(c3C(COC1=O)N1C(O)C3Cc5cc(C)c(OC)c(O)c5C(C21)N3C)OCO4
Second compound 30 pM
  pIC50: < 5.00
Second compound 94.9 pM
  pIC50: < 5.00
Second compound 0.0003 µM
  pIC50: < 5.00
Second compound 0.000949 µM
  pIC50: > 7.50
Second compound 0.003 µM
  pIC50: > 7.50
Second compound 30 pM, first compound 0.0316 µM
  viability, T/C: 103%
Second compound 30 pM, first compound 0.1 µM
  viability, T/C: 97.3%
Second compound 30 pM, first compound 0.316 µM
  viability, T/C: 105%
Second compound 30 pM, first compound 1 µM
  viability, T/C: 119%
Second compound 30 pM, first compound 3.16 µM
  viability, T/C: 114%
Second compound 30 pM, first compound 10 µM
  viability, T/C: 104%
Second compound 94.9 pM, first compound 0.0316 µM
  viability, T/C: 104%
Second compound 94.9 pM, first compound 0.1 µM
  viability, T/C: 97.9%
Second compound 94.9 pM, first compound 0.316 µM
  viability, T/C: 102%
Second compound 94.9 pM, first compound 1 µM
  viability, T/C: 118%
Second compound 94.9 pM, first compound 3.16 µM
  viability, T/C: 115%
Second compound 94.9 pM, first compound 10 µM
  viability, T/C: 77.7%
Second compound 0.0003 µM, first compound 0.0316 µM
  viability, T/C: 98.4%
Second compound 0.0003 µM, first compound 0.1 µM
  viability, T/C: 90.4%
Second compound 0.0003 µM, first compound 0.316 µM
  viability, T/C: 98.1%
Second compound 0.0003 µM, first compound 1 µM
  viability, T/C: 100%
Second compound 0.0003 µM, first compound 3.16 µM
  viability, T/C: 98.6%
Second compound 0.0003 µM, first compound 10 µM
  viability, T/C: 72.6%
Second compound 0.000949 µM, first compound 0.0316 µM
  viability, T/C: 0.39%
Second compound 0.000949 µM, first compound 0.1 µM
  viability, T/C: 0.81%
Second compound 0.000949 µM, first compound 0.316 µM
  viability, T/C: 0.5%
Second compound 0.000949 µM, first compound 1 µM
  viability, T/C: 0.48%
Second compound 0.000949 µM, first compound 3.16 µM
  viability, T/C: 0.45%
Second compound 0.000949 µM, first compound 10 µM
  viability, T/C: 0.53%
[1]
  viability, T/C: 1.51%
[2]
  viability, T/C: 1.6%
[3]
  viability, T/C: 1.61%
[4]
  viability, T/C: 1.74%
[5]
  viability, T/C: 2.05%
[6]
  viability, T/C: 0.75%

## [2H]c1nc(C)nc([2H])c1-c1cc(NC[C@@H](C)c2cccc3c(C(=O)NC)ccnc23)ncn1 + CC[C@@]1(O)C(=O)OCc2c1cc1n(c2=O)Cc2cc3c(CN(C)C)c(O)ccc3nc2-1
Second compound 0.003 µM
  pIC50: < 5.00
Second compound 0.00949 µM
  pIC50: < 5.00
Second compound 0.03 µM
  pIC50: 5.12
Second compound 0.0949 µM
  pIC50: > 7.50
Second compound 0.3 µM
  pIC50: > 7.50
[1]
  viability, T/C: 96.3%
[2]
  viability, T/C: 103%
[3]
  viability, T/C: 97.9%
[4]
  viability, T/C: 105%
[5]
  viability, T/C: 102%
[6]
  viability, T/C: 102%
[7]
  viability, T/C: 93.7%
[8]
  viability, T/C: 101%
[9]
  viability, T/C: 98.5%
[10]
  viability, T/C: 100%
[11]
  viability, T/C: 102%
[12]
  viability, T/C: 97.2%
[13]
  viability, T/C: 78.9%
[14]
  viability, T/C: 67.9%
[15]
  viability, T/C: 75.5%
[16]
  viability, T/C: 71.1%
[17]
  viability, T/C: 53.9%
[18]
  viability, T/C: 48.7%
[19]
  viability, T/C: 13.9%
[20]
  viability, T/C: 15.4%
[21]
  viability, T/C: 11.2%
[22]
  viability, T/C: 13.1%
[23]
  viability, T/C: 7.36%
[24]
  viability, T/C: 6.4%
[25]
  viability, T/C: 4.73%
[26]
  viability, T/C: 5.56%
[27]
  viability, T/C: 4.91%
[28]
  viability, T/C: 4.06%
[29]
  viability, T/C: 4.8%
[30]
  viability, T/C: 3.56%

## COc1ccc([C@@H](O)c2cc(-c3ncnc4cc(N5CCOCC5)ccc34)c(F)cc2Cl)nn1 + CC[C@@]1(O)C(=O)OCc2c1cc1n(c2=O)Cc2cc3c(CN(C)C)c(O)ccc3nc2-1
Second compound 0.003 µM
  pIC50: 5.10
Second compound 0.00949 µM
  pIC50: 5.21
Second compound 0.03 µM
  pIC50: 6.17
Second compound 0.0949 µM
  pIC50: > 7.50
Second compound 0.3 µM
  pIC50: > 7.50
[1]
  viability, T/C: 103%
[2]
  viability, T/C: 107%
[3]
  viability, T/C: 106%
[4]
  viability, T/C: 106%
[5]
  viability, T/C: 89.2%
[6]
  viability, T/C: 39%
[7]
  viability, T/C: 90.1%
[8]
  viability, T/C: 102%
[9]
  viability, T/C: 106%
[10]
  viability, T/C: 102%
[11]
  viability, T/C: 82.8%
[12]
  viability, T/C: 26.5%
[13]
  viability, T/C: 69.8%
[14]
  viability, T/C: 78.5%
[15]
  viability, T/C: 60.4%
[16]
  viability, T/C: 43.9%
[17]
  viability, T/C: 26.1%
[18]
  viability, T/C: 18.9%
[19]
  viability, T/C: 18.4%
[20]
  viability, T/C: 11.6%
[21]
  viability, T/C: 14.2%
[22]
  viability, T/C: 13.7%
[23]
  viability, T/C: 11.4%
[24]
  viability, T/C: 9.78%
[25]
  viability, T/C: 4.47%
[26]
  viability, T/C: 3.97%
[27]
  viability, T/C: 4.59%
[28]
  viability, T/C: 4.78%
[29]
  viability, T/C: 4.77%
[30]
  viability, T/C: 3.94%
